{"source": "patent US7294643B2", "about": "“UK-1 analogues: methods of preparation and use” (Board of Regents, The University of Texas System, priority 2002, dated 2007)", "key": {"SK-N-AS": {"tested_on": "SK-N-AS", "assay": "alamarBlue cytotoxicity assay, SK-N-AS", "format": "cell-based", "settings": "Homo sapiens", "protocol": "(§1) Cytotoxicity Assays. Cell culture cytotoxicity assays were performed using the. alamarBlue method, as described by Ahmed et al., J. Immun. Methods 1994, 170, 211-224, which is incorporated herein by reference. Briefly, aliquots of 100 μL of cell suspension (1.0-2.5×10^3 cells) was placed in 96-well microtiter plates in an atmosphere of 5% CO2 at 37° C. After 24 hours, 100 μL of culture medium and 2 μL of compound in vehicle (culture media with 40% pyridine) or vehicle alone were added, and the plates incubated an additional 72 hours. The final pyridine concentration in all cases was 0.4%; at this pyridine concentration there was no affect on the growth of cells compared to cells in culture media without added pyridine. […] After the culture media had been removed from each well, 200 μL of fresh media and 20 μL of 90% alamarBlue reagent were added, followed by an additional 6 h incubation. The fluorescent intensity was measured using a Spectrafluor Plus plate reader with excitation at 530 nm and emission at 590 nm. Results are reported as IC50 values, the average concentration required to produce a decrease of fluorescent intensity of 50% relative to vehicle-treated controls in two separate determinations."}, "[1]": {"tested_on": "IMR-32 neuroblastoma cell line", "assay": "alamarBlue cytotoxicity assay, IMR-32", "format": "cell-based", "settings": "Homo sapiens", "protocol": "as §1"}, "[2]": {"tested_on": "methicillin-resistant S. aureus ATCC 43300", "assay": "Antimicrobial bioassay, methicillin-resistant S. aureus", "format": "cell-based, Staphylococcus aureus", "protocol": "Antimicrobial Bioassay: Staphylococcus aureus ATCC 29213 and methicillin-resistant S. aureus ATCC 43300 (MRS) were obtained from the American Type Culture Collection (Rockville, Md.) and stored on agar slants at 4° C. until needed. Susceptibility testing was performed using a modified version of the NCCLS methods: “Methods for Dilution Antimicrobial Susceptibility Tests for Bacteria that Grow Aerobically,” M7-A4, Vol. 17, No. 2, NCCLS, (1997) and “Reference Method for Broth Dilution Antifungal Susceptibility Testing of Yeasts; Approved Standard,” M27-A, Vol. 17, No. 9, NCCLS, (1997), both of which are incorporated herein by reference. Microorganisms were subcultured prior to the assay by suspending cells from the slant in Eugon broth (BBL, Maryland) and incubating for 24 hours at 37° C. Inocula were prepared by diluting the subcultured organism in its incubation broth after comparison to the 0.5 McFarland Standard (a BaSO4 suspension) to afford final inocula ranges of S. aureus: 1.0-5.0×10^5 and MRS: 0.2-6.0×10^5 CFU/ml. Test compounds were dissolved in DMSO, serially-diluted using normal saline, and transferred in duplicate to 96 well flat-bottomed microtiter plates. The microbial inocula were added to the samples to achieve a final volume of 200 μl and final compound concentrations starting with 50 μg/ml. Drug [Ciprofloxacin (ICN Biomedicals, Ohio)] as well as growth and blank (media only) controls were added to each test plate. Plates were read at 630 nm using the EL-340 Biokinetics Reader (Bio-Tek Instruments, Vermont) prior to and after incubation at 37° C. for 24 hours. Percent growth was calculated and plotted versus concentration to afford the IC50, or sample concentration that affords 50% growth of the organism relative to controls."}, "Pseudomonas aeruginosa": {"tested_on": "Pseudomonas aeruginosa", "assay": "Antimicrobial bioassay, P. aeruginosa", "format": "cell-based", "settings": "concentrations up to 50 μg/mL"}}, "data": [{"smiles": "COC(=O)c1cccc2oc(-c3cccc4oc(-c5ccccc5O)nc34)nc12", "note": "[UK-1]", "values": [{"measurement": "IC50", "setting": "SK-N-AS", "result": 24000, "unit": "nM"}, {"measurement": "IC50", "setting": "[1]; IMR-32, IMR-32, alamarBlue", "result": 60, "unit": "nM"}, {"measurement": "IC50", "setting": "[1]; IMR-32, IMR-32, bound stated in text", "result": "< 100", "unit": "nM"}, {"measurement": "IC50", "setting": "[2]; Staphylococcus aureus, ATCC43300, Methacilline-resistant Staph. Aureus, growth inhibited by 50%, read-out: Staph. aureus IC50", "result": "> 50", "unit": "µg/mL"}, {"measurement": "antibacterial effect", "setting": "[2]; methicillin-resistant S. aureus, concentrations up to 50 μg/mL", "result": "no indication of any antibacterial effect"}, {"measurement": "antibacterial effect", "setting": "Pseudomonas aeruginosa", "result": "no indication of any antibacterial effect"}]}]}
